Experimental data as given in patent US12655116B2, “Substituted isophthalic acid diamides” (Bayer Aktiengesellschaft, priority 2020, dated 2026).

Columns and labels:
ECHCG [1] = experiment: Pre-emergence herbicidal action against ECHCG; assay type: in vivo, Echinochloa crus-galli; conditions: 80 g/ha
Outline: (§1)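 Herbicidal effect was assessed 3 weeks after treatment by visual comparison with untreated controls, 100% denoting dead plants. Aqueous WP or EC preparations had been applied at 600 to 800 l/ha with 0.2% wetting agent to the soil covering freshly sown seeds.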

VIOTR [2] = experiment: Post-emergence herbicidal action against VIOTR; assay type: in vivo, Viola tricolor; conditions: Viola tricolor, 504 h
Outline: (§2)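 Post-emergence greenhouse test; one-leaf stage, 2–3 wk post-sowing, sandy loam. Foliar spray of WP/EC in water, 600–800 l/ha, +0.2% wetting agent. Visual % action at ~3 wk vs untreated (100% = plants dead).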

AMARE = experiment: Pre-emergence herbicidal action against AMARE; assay type: in vivo, Amaranthus retroflexus
Outline: as §1

VERPE [3] = experiment: Pre-emergence herbicidal action against VERPE; assay type: in vivo, Veronica persica; conditions: Veronica persica, 504 h, dosage 80 g/ha
Outline: as §1

SETVI [4] = experiment: Post-emergence herbicidal action against SETVI; assay type: in vivo, Setaria viridis; conditions: dosage 20 g/ha
Outline: as §2

POLCO [5] = experiment: Pre-emergence herbicidal action against POLCO; assay type: in vivo, Polygonum convolvulus
Outline: as §1

ECHCG [6] = experiment: Post-emergence herbicidal action against ECHCG; assay type: in vivo, Echinochloa crus-galli
Outline: as §2

PHBPU [7] = experiment: Post-emergence herbicidal action against PHBPU; assay type: in vivo, Pharbitis purpurea; conditions: dosage 20 g/ha
Outline: as §2

POLCO [8] = experiment: Post-emergence herbicidal action against POLCO; assay type: in vivo, Polygonum convolvulus; conditions: dosage 20 g/ha
Description: Seeds of monocotyledonous and dicotyledonous weed and crop plants are laid out in sandy loam soil in wood-fiber pots, covered with soil and cultivated in a greenhouse under good growth conditions. 2 to 3 weeks after sowing, the test plants are treated at the one-leaf stage. The compounds of the invention, formulated in the form of wettable powders (WP) or as emulsion concentrates (EC), are then sprayed onto the green parts of the plants in the form of an aqueous suspension or emulsion at a water application rate equivalent to 600 to 800 l/ha, with addition of 0.2% wetting agent. After the test plants have been left to stand in the greenhouse under optimal growth conditions for about 3 weeks, the action of the preparations is assessed visually in comparison to untreated controls (herbicidal action in percent (%): 100% activity=the plants have died, 0% activity=like control plants). […] The tables below illustrate, in an illustrative manner, the post-emergence herbicidal action of the compounds of the invention, the herbicidal activity being stated in percent.

VIOTR [9] = experiment: Pre-emergence herbicidal action against VIOTR; assay type: in vivo, Viola tricolor
Outline: as §1

ALOMY = experiment: Pre-emergence herbicidal action against ALOMY; assay type: in vivo, Alopecurus myosuroides; conditions: 80 g/ha, pre-emergence, scored visually after 3 weeks vs untreated controls (100% = plants have died, 0% = like control plants)
Outline: as §1

MATIN [10] = experiment: Post-emergence herbicidal action against MATIN; assay type: in vivo, Matricaria inodora; conditions: Tripleurospermum inodorum, 504 h
Outline: as §2

VERPE [11] = experiment: Post-emergence herbicidal action against VERPE; assay type: in vivo, Veronica persica; conditions: Veronica persica, 504 h
Outline: as §2

MATIN [12] = experiment: Pre-emergence herbicidal action against MATIN; assay type: in vivo, Matricaria inodora
Outline: as §1

PHBPU [13] = experiment: Pre-emergence herbicidal action against PHBPU; assay type: in vivo, Pharbitis purpurea; conditions: dosage 80 g/ha
Outline: as §1

DIGSA = experiment: Pre-emergence herbicidal action against DIGSA; assay type: in vivo, Digitaria sanguinalis
Outline: as §1

ABUTH [14] = experiment: Pre-emergence herbicidal action against ABUTH; assay type: in vivo, Abutilon theophrasti
Outline: as §1

SETVI [15] = experiment: Pre-emergence herbicidal action against SETVI; assay type: in vivo, Setaria viridis
Outline: as §1

ABUTH [16] = experiment: Post-emergence herbicidal action against ABUTH; assay type: in vivo, Abutilon theophrasti; conditions: visual assessment about 3 weeks after treatment vs untreated controls
Outline: as §2

AVEFA = experiment: Pre-emergence herbicidal action against AVEFA; assay type: in vivo, Avena fatua; conditions: 80 g/ha, pre-emergence
Outline: as §1

[17] = 80 g/ha, scored visually after 3 weeks vs untreated controls (100% = plants have died, 0% = like control plants)

COc1c(C(=O)Nc2nnnn2C)ccc(C(F)F)c1C(=O)NC1CC1 [Example 1-74]
100%: pest or weed control at 80 g/ha (ECHCG [1]; Echinochloa crus-galli, 504 h) | pest or weed control at 20 g/ha (AMARE; Amaranthus retroflexus, 504 h, 20 g/ha, scored visually after 3 weeks vs untreated controls, 100% = plants have died, 0% = like control plants) | pest or weed control at 80 g/ha (AMARE; Amaranthus retroflexus, 504 h, 80 g/ha, scored visually after 3 weeks vs untreated controls, 100% = plants have died, 0% = like control plants) | pest or weed control at 80 g/ha (VERPE [3]) | pest or weed control at 20 g/ha (SETVI [4]; Setaria viridis, 504 h) | pest or weed control at 20 g/ha (VIOTR [9]; Viola tricolor, 504 h, dosage 20 g/ha) | pest or weed control at 80 g/ha (VIOTR [9]; Viola tricolor, 504 h, dosage 80 g/ha) | pest or weed control at 20 g/ha (MATIN [12]; Tripleurospermum inodorum, 504 h, dosage 20 g/ha) | pest or weed control at 80 g/ha (MATIN [12]; Tripleurospermum inodorum, 504 h, dosage 80 g/ha) | pest or weed control at 80 g/ha (PHBPU [13]; Ipomoea purpurea, 504 h) | pest or weed control at 20 g/ha (DIGSA; Digitaria sanguinalis, 504 h, dosage 20 g/ha) | pest or weed control at 80 g/ha (DIGSA; Digitaria sanguinalis, 504 h, dosage 80 g/ha) | pest or weed control at 80 g/ha (ABUTH [14]; Abutilon theophrasti, 504 h, 80 g/ha, scored visually after 3 weeks vs untreated controls (100% = plants have died, 0% = like control plants)) | pest or weed control at 20 g/ha (ABUTH [14]; Abutilon theophrasti, 504 h, dosage 20 g/ha, scored visually after 3 weeks vs untreated controls, 100% = plants have died, 0% = like control plants, read-out: Pre-emergence action against ABUTH (herbicidal activity in percent)) | pest or weed control at 20 g/ha (SETVI [15]; Setaria viridis, 504 h, dosage 20 g/ha) | pest or weed control at 80 g/ha (SETVI [15]; Setaria viridis, 504 h, dosage 80 g/ha)
90%: pest or weed control at 20 g/ha (VIOTR [2]; 20 g/ha) | pest or weed control at 20 g/ha (PHBPU [7]; Ipomoea purpurea, 504 h) | pest or weed control at 80 g/ha (ALOMY; Alopecurus myosuroides, 504 h) | pest or weed control at 20 g/ha (MATIN [10]; dosage 20 g/ha) | pest or weed control at 20 g/ha (VERPE [11]; 20 g/ha)
80%: pest or weed control at 5 g/ha (VIOTR [2]; 5 g/ha) | pest or weed control at 80 g/ha (POLCO [5]; Fallopia convolvulus, 504 h, dosage 80 g/ha) | pest or weed control at 5 g/ha (ECHCG [6]; Echinochloa crus-galli, 504 h, dosage 5 g/ha) | pest or weed control at 20 g/ha (ECHCG [6]; Echinochloa crus-galli, 504 h, dosage 20 g/ha) | pest or weed control at 20 g/ha (POLCO [8]; Fallopia convolvulus, 504 h) | pest or weed control at 5 g/ha (MATIN [10]; dosage 5 g/ha) | pest or weed control at 5 g/ha (VERPE [11]; 5 g/ha) | pest or weed control at 5 g/ha (ABUTH [16]; Abutilon theophrasti, 504 h, dosage 5 g/ha) | pest or weed control at 20 g/ha (ABUTH [16]; Abutilon theophrasti, 504 h, dosage 20 g/ha)

CCn1nnnc1NC(=O)c1ccc(C(F)(F)F)c(C(=O)NCC(F)F)c1C [Example 2-30]
80%: Post-emergence action against SETVI in % (SETVI [4]) | Pre-emergence action against POLCO in % (POLCO [5]; dosage 20 g/ha) | Pre-emergence action against POLCO in % (POLCO [5]; dosage 80 g/ha) | Post-emergence action against ECHCG in % (ECHCG [6]; dosage 5 g/ha) | Post-emergence action against ECHCG in % (ECHCG [6]; dosage 20 g/ha) | Post-emergence action against POLCO in % (POLCO [8]) | Pre-emergence action against PHBPU in % (PHBPU [13]) | Post-emergence action against ABUTH in % (ABUTH [16]; dosage 5 g/ha) | Post-emergence action against ABUTH in % (ABUTH [16]; dosage 20 g/ha)
90%: Post-emergence action against PHBPU in % (PHBPU [7])
100%: Pre-emergence action against ECHCG in % (ECHCG [1]) | Pre-emergence action against AMARE in % (AMARE; 20 g/ha, scored visually after 3 weeks vs untreated controls, 100% = plants have died, 0% = like control plants) | Pre-emergence action against AMARE in % (AMARE; [17]) | Pre-emergence action against VIOTR in % (VIOTR [9]; dosage 20 g/ha) | Pre-emergence action against VIOTR in % (VIOTR [9]; dosage 80 g/ha) | Pre-emergence action against ALOMY (herbicidal activity) (ALOMY) | Pre-emergence action against AVEFA in % (AVEFA) | Pre-emergence action against MATIN in % (MATIN [12]; dosage 20 g/ha) | Pre-emergence action against MATIN in % (MATIN [12]; dosage 80 g/ha) | Pre-emergence action against DIGSA in % (DIGSA; dosage 20 g/ha) | Pre-emergence action against DIGSA in % (DIGSA; dosage 80 g/ha) | Pre-emergence action against ABUTH (herbicidal activity) (ABUTH [14]; [17]) | Pre-emergence action against SETVI in % (SETVI [15]; dosage 20 g/ha) | Pre-emergence action against SETVI in % (SETVI [15]; dosage 80 g/ha)
